The source of these data is US10899714B2, “6-aminoisoquinoline compounds” (Aerie Pharmaceuticals, Inc., priority 2007, dated 2021).

Structures can show the parent of a compound that is named as a salt.

Common to all, as to format: in vivo
A short description of assay [1]: Topical ocular composition (Example 212), hyperemia, redness and ocular irritation. The note with it: 0.50 wt % topical composition, drop as needed.
Assay [2] concerns patient suffering from glaucoma. The assay can be described thus: Topical ocular composition (Example 212) lowering intraocular pressure. The note with it: 0.50 wt % topical composition. As to the method: Examples of such assays are described in the following reference, incorporated herein by reference: C. Liljebris, G. Selen. B. Resul, J. Sternschantz, and U. Hacksell, “Derivatives of 17-Phenyl-18, 19, 20-trinorprostaglandin F2α Isopropyl Ester: Potential Anti-glaucoma Agents”, Journal of Medicinal Chemistry, Vol. 38 (2) 1995, pp. 289-304.
Topical pharmaceutical compositions for lowering intraocular pressure are prepared by conventional methods and formulated as follows: […]
A compound according to this invention is used as the 6-aminoisoquinoline derivative. […]

Assay [3] can be described thus: Topical ocular composition (Example 212), allergic symptoms. The note with it: 0.50 wt % topical composition.
Assay [4] in a line: Topical ocular composition (Example 212), dry eye syndrome. The note with it: 0.50 wt % topical composition, drop twice per day.
Assay [5] can be described thus: Topical ocular composition (Example 212), neuroprotective effect. The note with it: 0.50 wt % topical composition, drop 4 times per day.

As to `O=C(CN1CCOCC1)Nc1ccc2cnccc2c1` [Example E105, N-(isoquinolin-6-yl)-2-morpholinoacetamide], the “hyperemia, redness and ocular irritation” value in assay [1] is “substantially decreases hyperemia, redness and ocular irritation”.

In the case of `O=C(Nc1ccncc1)c1ccc(C2CC2C(=O)Nc2ccc3cnccc3c2)cc1` (stereo not shown) [Example E118, 4-(2-(isoquinolin-6-ylcarbamoyl)cyclopropyl)-N-(pyridin-4-yl)benzamide], the intraocular pressure entry in assay [2] (drop twice a day or as needed) is reported as “substantially decreases intraocular pressure”.

Regarding `CNC(=O)c1cccc(NCS(=O)(=O)Nc2ccc3cnccc3c2)c1` [Example E136, 3-((N-isoquinolin-6-ylsulfamoyl)methylamino)-N-methylbenzamide], the intraocular pressure result in assay [2] (drop twice per day) was “substantially decreases intraocular pressure”.

Turning to `NCC(=O)Nc1ccc2cnccc2c1` [Example E40, 2-amino-N-isoquinoline-6-yl-acetamide dihydrochloride], in assay [1], the “hyperemia, redness and ocular irritation” value is “substantially decreases hyperemia, redness and ocular irritation”.

Take `O=C(CCl)Nc1ccc2cnccc2c1` [Example E1, 2-chloro-N-(isoquinolin-6-yl) acetamide]: the allergic symptoms result in assay [3] (drop twice per day) is reported as “substantially decreases allergic symptoms”. The dry eye syndrome entry in assay [4] is given as “relieves dry eye syndrome”.

`N[C@@H](CSCC(C(=O)c1ccc(/C=C/C(=O)Nc2ccc3cnccc3c2)cc1)c1ccccc1)C(=O)O` (stereo partly drawn) [Example E207, (2R)-2-amino-3-(3-(4-((E)-3-(isoquinolin-6-ylamino)-3-oxoprop-1-enyl)phenyl)-3-oxo-2-phenylpropylthio)propanoic acid]: in assay [2] (drop 4 times per day), the intraocular pressure result is “substantially decreases intraocular pressure”. Besides, in assay [5], the neuroprotective agent result is on record as “serves as a neuroprotective agent”.

Turning to `O=C(CNCc1ccccc1)Nc1ccc2cnccc2c1` [Example E58, 2-(benzylamino)-N-(isoquinolin-6-yl)acetamide], the intraocular pressure result in assay [2] (drop twice per day) is listed as “substantially decreases intraocular pressure”.

As for `O=C(Nc1ccc2cnccc2c1)OCc1ccccc1` [Example E87, benzylisoquinolin-6-ylcarbamate], in assay [3] (drop twice per day), the allergic symptoms entry is recorded as “substantially decreases allergic symptoms”. Besides, the dry eye syndrome result in assay [4] is listed as “relieves dry eye syndrome”.

`O=C(NCc1ccccc1)Nc1ccc2cnccc2c1` [Example E88, 1-benzyl-3-(isoquinolin-6-yl)urea]: the allergic symptoms entry in assay [3] (drop as needed) is on record as “substantially decreases allergic symptoms”.

As for `CNC(=O)c1cccc(NCC(=O)Nc2ccc3cnccc3c2Cl)c1` [Example E119b, 3-(2-(5-chloroisoquinolin-6-ylamino)-2-oxoethylamino)-N-methyl benzamide], the intraocular pressure result in assay [2] (drop twice a day or as needed) is listed as “substantially decreases intraocular pressure”.
